Results: patent US10139394B2, “Method for controlling cancer metastasis or cancer cell migration by modulating the cellular level of lysyl tRNA synthetase” (Medicinal Bioconvergence Research Center, priority 2008, dated 2018)

What was measured:
[1] = test system: membrane translocation of KRS; assay: Laminin-dependent membrane translocation of KRS and 67LR, cell fractionation and Western blotting; type: cell-based; conditions: A549 cells; inhibitor for 3 hr, then laminin for 1 hr; FIG. 9 upper
Protocol: (§1) In FIG. 7, A549 cells were treated with laminin (10 ug/ml) and the level of 67LR, 37LRP and KRS was determined by Western blotting at the indicated times. Hsp90 and Cadherin were used as markers for cytoplasm and membrane, respectively. In FIG. 8, A549 cells untreated or treated with laminin for 1 h were subjected to immunofluorescence staining with anti-67LR (MLuC5, Santacruz, sc-59732) (red) and -KRS antibodies (green). In FIG. 9, A549 cells were treated with U73122 (U), staurosporin (ST) and LY294002 (LY) that inhibit PLC-gamma, PKC and PI3K, respectively, for 3 hr, then with laminin for 1 hr and checked how these kinase inhibitors would affect the membrane and cytoplasmic level of 67LR and KRS. In FIG. 10, A549 cells were transfected with Myc-KRS and incubated for 24 h. The cells were treated with the indicated chemicals and then with laminin as above. Myc-KRS was immunoprecipitated, and immunoblotted with anti-p-Thr, -Ser, and -Tyr antibodies. In FIG. 11, A549 cells were transfected with Myc-KRS and cultivated for 24 hr. The transfectants were pre-treated with LY294002 for 3 hr and then treated with laminin for 1 h. Myc-KRS was immunoprecipitated and co-precipitation of 67LR was determined by Western blotting. IgG was used as a control for immunoprecipitation. In FIG. 12, A549 cells were cultivated in the absence and presence of laminin and LY294002 as indicated. EPRS (glutamyl-prolyl-tRNA synthetase) was immunoprecipitated with its specific antibody (AbCam), and co-immunoprecipitation of KRS was determined by Western blotting (upper). The immune-depleted supernatant (ID) were subjected to Western blottingting with anti-KRS and -EPRS antibodies.
The cells were lysed with 20 mM Tris-HCl (pH 7.4) buffer containing 150 mM NaCl, 0.5% TritonX-100, 0.1% SDS, and protease inhibitor. The protein extracts were incubated with normal IgG and protein G agarose for 2 hr and then centrifuged to remove nonspecific IgG binding proteins. […]

[2] = test system: A549 cells; assay: Cell migration assay in Transwell chamber; type: cell-based; conditions: purified KRS at different concentration in lower chamber, 6 hr, FIG. 25
Protocol: In FIG. 18, A549 cells were transfected with the indicated plasmids, incubated in the absence and presence of laminin and their effect on cell migration was determined by measuring the migrated cells in transwell chamber as described. The numbers of the cells passed through the membrane were counted and shown in each panel. The experiments were performed three times. In FIG. 19, the cells treated as above were used to determine MMP-2 activity and level by zymography and Western blotting, respectively. In FIG. 20, Breast carcinoma 4T-1 cells were transfected with the indicated siRNA and subcutaneously injected to the back of Balb/C mice. After 21 days, mouse lungs were isolated and tumor nodules over 1 mm in diameter were counted. In FIG. 21, two different 4T-1 cells stably expressing exogenously introduced KRS (KRS-1 and -2) were also inoculated as above and the tumor nodules were counted 30 days after injection. […]
FIGS. 24 to 27 show effect of intracellular and extracellular KRS on cell migration, protein synthesis and cell cycle. In FIG. 24, Migration of A549 cells incubated in the absence of laminin was determined was determined by measuring the migrated cells in Transwell chamber. […] After 6 hr of incubation, the migrant were counted. […] In FIG. 27, A549 cells transfected as indicated were fixed and stained with propidium iodide, and their cell cycle was determined by flow cytometry. […]

[3] = test system: phosphorylation of KRS; assay: Laminin-induced phosphorylation of Myc-KRS, immunoprecipitation and immunoblot with anti-p-Thr, -Ser, -Tyr antibodies; type: cell-based, human; conditions: Myc-KRS transfected A549 cells; FIG. 10
Protocol: as §1, with “IgG was used as a control for immunoprecipitation. In FIG. 12, A549 cells were cultivated in the absence and presence of laminin and LY294002 as indicated.” left out, “The immune-depleted supernatant (ID) were subjected to Western blottingting with anti-KRS and -EPRS antibodies.” left out

Compound | Laminin-dependent increase of KRS and 67LR in the membrane fraction [1] | cell migration (chemotactic activity of extracellular KRS) [2] | laminin-induced phosphorylated KRS at threonine and serine in presence of inhibitor [3]
COc1ccc2c(c1)CC[C@@H]1[C@@H]2CC[C@]2(C)[C@@H](NCCCCCCN3C(=O)C=CC3=O)CC[C@@H]12 [U73122] | still showed laminin-dependent induction of 67LRS |  | 
purified KRS: purified human lysyl-tRNA synthetase protein added extracellularly |  | little affected | 
CN[C@@H]1C[C@H]2O[C@@](C)([C@@H]1OC)n1c3ccccc3c3c4c(c5c6ccccc6n2c5c31)C(=O)NC4 [staurosporin, reference compound] | still showed laminin-dependent induction of 67LRS |  | did not give any effect
